# Data reported in patent US20090318399A1, “PHARMACEUTICAL COMPOSITION AND EXTRACT OF PORIA FOR TREATING A DISEASE INDUCED FROM IMMUNE DISORDER” (Sinphar Pharmaceutical Co., Ltd., priority 2008, published 2009).
# System: immune cells in BALF of OVA-sensitized mice
# Test: Percentage of subpopulation of immune cells in BALF
# Format: in vivo, BALB/c mice
# Conditions: Pred group: 0.1 mg Prednisolone per day for 5 days; % of total BALF cells; mean±SD
# Text: In this example the mice were induced to become allergic by using ovalbumin (OVA) as an allergen, and the mice were confirmed suffering the induced asthma from the appearance of OVE-specific IgE antibody in the mice. Mice in different groups were fed with a Poria extract or pure lanostane compound during the experimental period, and each mouse was subjected to an airway hyperresponsiveness test after one-month feeding, from which an important index reflecting the severe degree of the asthma of the mouse was determined. In this example different immune cells in bronchoalveolar lavage fluid (BALF) of the mice were also observed as to whether they particularly eosinophils and neutrophils were affected. Further, a chemoattractant factor, Eotaxin, was an important observation factor in this example for observing whether the secretion of cytokines changed dramatically.
# (1) Experimental animal: Inbred BALB/c female mice were maintained by standard laboratory chow ad libitum. Room temperature was maintained at 19-24° C. and relative humidity at 50-70%. […]
# As all groups of mice had finished of AHR analysis, they were sacrificed on next day. […] The total cell numbers were determined with 0.5 ml CM-10, wherein the density of cells was adjusted to 3×10^5 cells/ml. […] Two hundreds of leukocytes were counted on each slide, which includes four different cells, eosinophil, neutrophil, lymphocyte and monocyte. […]
smiles,measurement,value
"C[C@]12C=CC(=O)C=C1CC[C@@H]1[C@@H]2[C@@H](O)C[C@@]2(C)[C@H]1CC[C@]2(O)C(=O)CO [Pred, Prednisolone]",Monocyte % in BALF,13.3 ± 7.8%
same,Neutrophil % in BALF,0.8 ± 0.8%
